Each structure is given as a SMILES string. Counter-ions that a name gives are not always drawn.

For one assay, the system named is Spontaneously Hypertensive Rats. The assay is described as follows: Hypotensive activity: mean arterial blood pressure in spontaneously hypertensive rats. The following applies: SHR, gavage, 100 mg/kg or less, two doses 24 h apart, measured at 28 hours; average MABP of rats used 160±1.5 mm. The format is in vivo, rat (Okamoto strain, male). The method, then:
The novel compounds of the invention are active hypotensive agents at nontoxic doses when administered to mammals. These compounds were tested for hypotensive activity by the method of P. S. Chan and D. W. Poorvin, Clinical and Experimental Hypertension, (6), 817-830 (1979). Male, 16 week old, spontaneously hypertensive rats of the Okamoto strain (Taconic Farms, Germantown, N.Y.) having an average means arterial blood pressure of 160±1.5 mm of mercury are used in the test. A rat is dosed by gavage with a test compound, suspended in 2% pre-boiled starch at a concentration of 50 mg/ml, at a dose of 100 mg/kg of body weight or less, with 0.9% sodium chloride loading at a dose of 25 ml/kg of body weight. A second identical dose of the test compound, without sodium chloride loading is given 24 hours later. At 28 hours after the initial dose the mean arterial blood pressure is measured by the method of Chan and Poorvin vide supra.
Regarding `N#Cc1cnn2c1N(C(=O)CN1CCN(c3ccccc3)CC1)CC=C2c1cccc(C(F)(F)F)c1` [Example 25, 4,5-Dihydro-4-[(4-phenyl-1-piperazinyl)acetyl]-7-[3-(trifluoromethyl)phenyl]pyrazolo[1,5-a]pyrimidine-3-carbonitrile], the “MABP/mmHg (mean arterial blood pressure)” value amounted to 137 mmHg.

With `N#Cc1cnn2c1N(C(=O)CN1CCN(c3cccc(Cl)c3)CC1)CC=C2c1cccc(C(F)(F)F)c1` [Example 26, 4-[[4-(3-Chlorophenyl)-1-piperazinyl]acetyl]-4,5-dihydro-7-[3-(trifluoromethyl)phenyl]pyrazolo[1,5-a]pyrimidine-3-carbonitrile], the “MABP/mmHg (mean arterial blood pressure)” value amounted to 124 mmHg.

In the case of `N#Cc1cnn2c1N(C(=O)CN1CCN(c3ncccn3)CC1)CC=C2c1cccc(C(F)(F)F)c1` [Example 28, 4,5-Dihydro-4-[[4-(2-pyrimidinyl)-1-piperazinyl]acetyl]-7-[3-(trifluoromethyl)phenyl]pyrazolo[1,5-a]pyrimidine-3-carbonitrile], the “MABP/mmHg (mean arterial blood pressure)” value was 127 mmHg. `N#Cc1cnn2c1N(C(=O)CN1CCN(c3ccc(F)cc3)CC1)CC=C2c1cccc(C(F)(F)F)c1` [Example 31, 4-[[4-(4-Fluorophenyl)-1-piperazinyl]acetyl]-4,5-dihydro-7-[3-(trifluoromethyl)phenyl]pyrazolo[1,5-a]pyrimidine-3-carbonitrile]: the “MABP/mmHg (mean arterial blood pressure)” value was found to be 130 mmHg. On the same count and under the same terms, next, `N#Cc1cnn2c1N(C(=O)CCN1CCN(Cc3ccc(Cl)cc3)CC1)CC=C2c1cccc(C(F)(F)F)c1` [Example 35, 4-[3-[4-[(Chlorophenyl)methyl]-1-piperazinyl]-1-oxopropyl]-4,5-dihydro-7-[3-(trifluoromethyl)phenyl]pyrazolo[1,5-a]pyrimidine-3-carbonitrile]: 138 mmHg; `N#Cc1cnn2c1N(C(=O)CN1CCN(C(c3ccc(F)cc3)c3ccc(F)cc3)CC1)CC=C2c1cccc(C(F)(F)F)c1` [Example 40, 4-[[4-[Bis(4-fluorophenyl)methyl]-1-piperazinyl]acetyl]-4,5-dihydro-7-[3-(trifluoromethyl)phenyl]pyrazolo[1,5-a]pyrimidine-3-carbonitrile]: 121 mmHg. The same measure, in the same setting: next, `C=CCN1CCN(CC(=O)N2CC=C(c3cccc(C(F)(F)F)c3)n3ncc(C#N)c32)CC1` [Example 47, 4,5-Dihydro-4-[[4-(2-propenyl)-1-piperazinyl]acetyl]-7-[3-(trifluoromethyl)phenyl]pyrazolo[1,5-a]pyrimidine-3-carbonitrile]: 139 mmHg. Still for that read-out and setting: the value for `CC(C)N1CCN(CC(=O)N2CC=C(c3cccc(C(F)(F)F)c3)n3ncc(C#N)c32)CC1` [Example 51, 4,5-Dihydro-4-[[4-(1-methylethyl)-1-piperazinyl]acetyl]-7-[3-(trifluoromethyl)phenyl]pyrazolo[1,5-a]pyrimidine-3-carbonitrile] was 139 mmHg; that for `N#Cc1cnn2c1N(C(=O)CN1CCN(C3CCC3)CC1)CC=C2c1cccc(C(F)(F)F)c1` [Example 52, 4-[(4-Cyclobutyl-1-piperazinyl)acetyl]-4,5-dihydro-7-[3-(trifluoromethyl)phenyl)pyrazolo[1,5-a]pyrimidine-3-carbonitrile] was 124 mmHg.

The assay is the same for the next values; noted with them: SHR, gavage, 100 mg/kg or less, two doses 24 h apart, measured at 28 hours; average MABP of rats used 160±1.5 mm; dihydrochloride, 100 mg/kg.
For `N#Cc1cnn2c1N(C(=O)CN1CCN(Cc3ccccc3)CC1)CC=C2c1cccc(C(F)(F)F)c1` [Example 78, 4,5-Dihydro-4-[[4-(phenylmethyl)-1-piperazinyl]acetyl]-7-[3-(trifluoromethyl)phenyl]pyroazolo[1,5-a]pyrimidine-3-carbonitrile, dihydrochloride], the “MABP/mmHg (mean arterial blood pressure)” value worked out at 137 mmHg.

For the next assay, the system named is Brain-Specific Receptors of Rats (3H-benzodiazepine binding). The assay can be described thus: Inhibition of the binding of 3H-benzodiazepine to brain-specific receptors of rats. To be noted: rat cortex P2 fraction, 3H-diazepam 1.5 nM or 3H-flunitrazepam 1.0 nM. Also on record: species or system rat (Wistar strain, whole cortex). The text has this:
Another test utilized for the determination of anxiolytic activity is the measurement of the ability of a test compound to inhibit the binding of tritiated benzodiazepines to brain-specific receptors of mammals. A modification of the method described by R. F. Squires, et al., Nature, 266 (21), 732 (Apr., 1977) and H. Mohler, et al., Science, 198, 849 (1977) was employed. […] The test compounds were solubilized in dimethylformamide, acetic acid, ethanol or hydrochloric acid. […] (1) resuspended in twice the original volume in hypotonic 50 mM Tris.HCl (pH 7.4), or (2) resuspended in one-half the original volume in hypotonic 10 mM Tris.HCl (pH 7.4) and frozen (-20° C.) until time. of use. Frozen P2 preparations were thawed and resuspended in four times the original homogenizing volume at time of assay. […] Incubation for 30 minutes proceeded in ice and was terminated by filtration, under vacuum, through glass fiber filters. The filters were washed twice with 5 ml of ice-cold 50 mM Tris.HCl (pH 7.4) and placed in scintillation vials. After drying at 50°-60° C. for 30 minutes, 10 ml of diluent was added and the radioactivity determined in a scintillation counter. Inhibition of binding was calculated by the difference between total binding and binding in the presence of test compound, divided by the total binding, X 100.
Regarding `CCCCCCN(CCCCCC)CC(=O)N1CC=C(c2cccc(C(F)(F)F)c2)n2ncc(C#N)c21` [4-[(Dihexylamino)acetyl]-4,5-dihydro-7-[3-(trifluoromethyl)phenyl]pyrazolo[1,5-a]pyrimidine-3-carbonitrile], the “% Inhibition (3H-benzodiazepine binding)” value was determined as 24%.

`CN1CCN(CC(=O)N2CC=C(c3cccc(C(F)(F)F)c3)n3ncc(C#N)c32)CC1` [Example 16, 4,5-Dihydro-4-[(4-methyl-1-piperazinyl)acetyl]-7-[3-(trifluoromethyl)phenyl]pyrazolo[1,5-a]pyrimidine-3-carbonitrile]: the “% Inhibition (3H-benzodiazepine binding)” value is 41%. Turning to `N#Cc1cnn2c1N(C(=O)CN1CCN(CC(=O)N3CCCC3)CC1)CC=C2c1cccc(C(F)(F)F)c1` [Example 38, 4,5-Dihydro-4-[[4-[2-oxo-2-(1-pyrrolidinyl)ethyl]-1-piperazinyl]acetyl]-7-[3-(trifluoromethyl)phenyl]pyrazolo[1,5-a]pyrimidine-3-carbonitrile], the “% Inhibition (3H-benzodiazepine binding)” value is listed as 33%. Same read-out and setting: the value for `CCOC(=O)N1CCN(CC(=O)N2CC=C(c3cccc(C(F)(F)F)c3)n3ncc(C#N)c32)CC1` [Example 42] was 45%. `N#Cc1cnn2c1N(C(=O)CN1CCN(Cc3ccccc3)CC1)CCC2c1cccc(C(F)(F)F)c1` (stereo not drawn) [Example 46, 4,5,6,7-Tetrahydro-4-[[4-(phenylmethyl)-1-piperazinyl]acetyl]-7-[3-(trifluoromethyl)phenyl]pyrazolo[1,5-a]pyrimidine-3-carbonitrile]: the “% Inhibition (3H-benzodiazepine binding)” value was determined as 14%. For `Cl.N#Cc1cnn2c1N(C(=O)CN1CCN(c3ccc(Cl)c(Cl)c3)CC1)CC=C2c1cccc(C(F)(F)F)c1` [Example 82, 4-[[4-(3,4-Dichlorophenyl)-1-piperazinyl]acetyl]-4,5-dihydro-7-[3-(trifluoromethyl)phenyl]pyrazolo[1,5-a]pyrimidine-3-carbonitrile, hydrochloride], the “% Inhibition (3H-benzodiazepine binding)” value turned out to be 12%. Still for that read-out and setting: next, `N#Cc1cnn2c1N(C(=O)CN1CCN(CCC3CCCCC3)CC1)CC=C2c1cccc(C(F)(F)F)c1` [Example 86, 4-[[4-(2-(Cyclohexylethyl)-1-piperazinyl]acetyl]-4,5-dihydro-7-[3-(trifluoromethyl)phenyl]pyrazolo[1,5-a]pyrimidine-3-carbonitrile, dihydrochloride]: 14%; `Cl.Cl.N#Cc1cnn2c1N(C(=O)CN1CCN(Cc3ccccc3)CC1)CCC2c1cccc(C(F)(F)F)c1` (stereo not drawn) [Example 89, 4,5,6,7-Tetrahydro-4-[[4-(phenylmethyl)-1-piperazinyl]acetyl]-7-[3-(trifluoromethyl)phenyl]pyrazolo[1,5-a]pyrimidine-3-carbonitrile, dihydrochloride]: 12%. Still for that read-out and setting: the value for `N#Cc1cnn2c1N(C(=O)CN1CCN(C(=O)c3ccco3)CC1)CC=C2c1cccc(C(F)(F)F)c1` [Example 96, 4-[[4-(2-Furanylcarbonyl)-1-piperazinyl]acetyl]-4.5-dihydro-7-[(3-trifluoromethyl)phenyl]pyrazolo[1,5-a]pyrimidine-3-carbonitrile, hydrochloride] was 12%; that for `N#Cc1cnn2c1N(C(=O)CN1CCNCC1)CC=C2c1cccc(C(F)(F)F)c1` [Example 98, 4.5-Dihydro-4-(1-piperazinylacetyl)-7-[3-(trifluoromethyl)phenyl]pyrazolo[1,5-a]pyrimidine-3-carbonitrile] was 25%.

In another assay the test system is mice (hypoxic environment). The assay is described as follows: Hypoxic survival test. Type of assay: in vivo, mouse (Royal Hart). To be noted: Mus musculus, ip, 5 min, 100 mg/kg, intraperitoneal, 10% oxygen, 5 minutes; read-out: % Survivors. The method, then:
The hypoxic survival test is a useful in vivo test for measuring the effectiveness of central nervous system-acting drugs in enhancing survival in an hypoxic environment relative to the known parasympathomimetic agent physostigmine.
Drugs are tested by intraperitoneal injection of groups of mice 30 minutes prior to placing them in an hypoxic environment and measuring survival. The rationale of this test is that drugs which enhance survival under hypoxic conditions without concomitant depression or sedative side effects, do so by enhancing brain metabolism, i.e., by improving energy supply relative to demand and so preserving normal brain function under conditions of reduced energy metabolism. Considering the dependence of the brain on a constant supply of energy, drugs which have this property may have many far-reaching therapeutic indications, including aiding recovery from stroke and closed head injury and reducing the deleterious effects of age-related central nervous system deficits.
In the hypoxic survival test, groups of 20 Royal Hart mice (6 weeks of age) were injected intraperitoneally with a test compound in saline at various doses ranging from 1 to 200 mg/kg, 30 minutes prior to placing them in an hypoxic mixture (10% oxygen, 90% […]) and measuring survival after 5 minutes.
A control group of 20 mice was injected intraperitoneally with saline (0.01 ml/g of body weight) and processed as described above.
Another group of 20 mice was injected intraperitoneally with 0.125 mg/kg of physostigmine in saline and processed as described above.
As to `N#Cc1cnn2c1N(C(=O)CN1CCN(Cc3ccccc3)CC1)CCC2c1cccc(C(F)(F)F)c1` (stereo not drawn) [Example 46, 4,5,6,7-Tetrahydro-4-[[4-(phenylmethyl)-1-piperazinyl]acetyl]-7-[3-(trifluoromethyl)phenyl]pyrazolo[1,5-a]pyrimidine-3-carbonitrile], the responders at 100 mg/kg is 80%.

The values are drawn from patent US4963553A, “4-[(substituted) alkylcarbonyl]-4,5-dihydro- and -4,5,6,7-tetrahydro-7-[(substituted)phenyl]pyrazolo[1,5-a]pyrimidines” (American Cyanamid Co., priority 1988, dated 1990).
